Measured values reported in patent US20110195929A1, “COMPOUNDS FOR THE TREATMENT OF FLAVIVIRAL INFECTIONS” (SUMMIT CORPORATION PLC, priority 2008, published 2011).

tested on: HCV; experiment: Cell-based HCV infection NS3 protease FRET assay in DMSO-Huh7 cells; set-up: species or system hepatitis C virus (HCV); details: not given; also: test concentration or dose not given here

Compound	Ave % inhibition
CCCCCCCCCN1C[C@H](O)[C@@H](O)[C@H](O)[C@H]1CO [Compound 550, (2R,3R,4R,5S)-2-(hydroxymethyl)-1-nonylpiperidine-3,4,5-triol]	++ (++: 20-39%)
CC1(C)O[C@H]2[C@@H](CN=[N+]=[N-])NC[C@H]2O1 [Compound 671, (3aS,4R,6aR)-4-(azidomethyl)-2,2-dimethyltetrahydro-3aH-[1,3]dioxolo[4,5-c]pyrrole]	++ (++: 20-39%)

same assay, conditions: DMSO-Huh7 cells infected with HCV at 0.05 ffu/cell; HCV NS3 protein levels by FRET, day 6 p.i.

Compound	Ave % inhibition
OCCCCCCCCCN1[C@H](CO)[C@@H](O)[C@H](O)[C@H]1CO [Compound 557, (2R,3R,4R,5R)-2,5-bis(hydroxymethyl)-1-(9-hydroxynonyl)pyrrolidine-3,4-diol]	++ (++: 20-39%)
OC[C@@H]1[C@@H](O)[C@H](O)[C@@H](CO)N1Cc1ccc(-c2ccccc2)cc1 [Compound 558, (2R,3R,4R,5R)-1-(biphenyl-4-ylmethyl)-2,5-bis(hydroxymethyl)pyrrolidine-3,4-diol]	+++ (+++: 40-59%)
OC[C@@H]1[C@@H](O)[C@H](O)[C@@H](CO)N1Cc1ccc(-c2ccccc2)cc1 [Compound 559, (2R,3R,4R,5R)-1-(biphenyl-4-ylmethyl)-2,5-bis(hydroxymethyl)pyrrolidine-3,4-diol]	++++ (++++: 60-79%)
C[C@@H](N)CCC[C@@H]1N[C@@H](CO)[C@H](O)[C@H]1O [Compound 561, (2S,3S,4S,5S)-2-((R)-4-aminopentyl)-5-(hydroxymethyl)pyrrolidine-3,4-diol]	++++ (++++: 60-79%)
C[C@H](N)CCC[C@@H]1N[C@@H](CO)[C@H](O)[C@H]1O [Compound 562, (2S,3S,4S,5S)-2-((S)-4-aminopentyl)-5-(hydroxymethyl)pyrrolidine-3,4-diol]	++++ (++++: 60-79%)
CC(=O)N[C@@H]1CNC[C@@H](O)[C@H]1O [Compound 563, N-((3R,4S,5R)-4,5-dihydroxypiperidin-3-yl)acetamide]	++++ (++++: 60-79%)
CCCCCCCCCN1C[C@H](O)[C@H](O)[C@@H]1CNC(C)=O [Compound 587, N-(((2S,3R,4S)-3,4-dihydroxy-1-nonylpyrrolidin-2-yl)methyl)acetamide]	+++ (+++: 40-59%)
CC(=O)NC[C@H]1[C@@H](O)[C@@H](O)CN1CCN1CCCCC1 [Compound 616, N-(((2S,3R,4S)-3,4-dihydroxy-1-(2-(piperidin-1-yl)ethyl)pyrrolidin-2-yl)methyl)acetamide]	++ (++: 20-39%)
CCCCCCCCCN1C[C@H](O)[C@H](O)[C@@H]1CNC(=O)c1ccccc1 [Compound 622, N-(((2S,3R,4S)-3,4-dihydroxy-1-nonylpyrrolidin-2-yl)methyl)benzamide]	+++++ (+++++: ≧80%)
OC[C@H]1[C@H](O)[C@H](O)CN1Cc1ccc(-c2ccccc2)cc1 [Compound 623, (2S,3S,4R)-1-(biphenyl-4-ylmethyl)-2-(hydroxymethyl)pyrrolidine-3,4-diol]	++ (++: 20-39%)
CCCCCCCCCN1C[C@@H]2OC(C)(C)O[C@@H]2[C@@H]1CNC(C)=O [Compound 630, N-(((3aR,4S,6aS)-2,2-dimethyl-5-nonyltetrahydro-3aH-[1,3]dioxolo[4,5-c]pyrrol-4-yl)methyl)acetamide]	++ (++: 20-39%)
CC1(C)O[C@H]2[C@H](CN(Cc3ccc(-c4ccccc4)cc3)[C@H]2CNC(=O)C(F)(F)F)O1 [Compound 632, N-(((3aR,4S,6aS)-5-(biphenyl-4-ylmethyl)-2,2-dimethyltetrahydro-3aH-[1,3]dioxolo[4,5-c]pyrrol-4-yl)methyl)-2,2,2-trifluoroacetamide]	++ (++: 20-39%)
O=C(NC[C@H]1[C@@H](O)[C@@H](O)CN1CCN1CCOCC1)c1ccccc1 [Compound 633, N-(((2S,3R,4S)-3,4-dihydroxy-1-(2-morpholinoethyl)pyrrolidin-2-yl)methyl)benzamide]	+++ (+++: 40-59%)
O=C(NC[C@@H]1[C@@H](O)[C@@H](O)CN1Cc1ccc(-c2ccccc2)cc1)c1ccccc1 [Compound 649, N-(((2R,3R,4S)-1-(biphenyl-4-ylmethyl)-3,4-dihydroxypyrrolidin-2-yl)methyl)benzamide]	+++ (+++: 40-59%)
CC1(C)O[C@H]2[C@H](CN(Cc3ccccc3)[C@H]2CNC(=O)c2ccc(-c3ccccc3)cc2)O1 [Compound 652, N-(((3aR,4S,6aS)-5-benzyl-2,2-dimethyltetrahydro-3aH-[1,3]dioxolo[4,5-c]pyrrol-4-yl)methyl)biphenyl-4-carboxamide]	+++++ (+++++: ≧80%)
O=C(NC[C@H]1[C@@H](O)[C@@H](O)CN1CCCCCCCCCO)c1ccc(-c2ccccc2)cc1 [Compound 660, N-(((2S,3R,4S)-3,4-dihydroxy-1-(9-hydroxynonyl)pyrrolidin-2-yl)methyl)biphenyl-4-carboxamide]	+++ (+++: 40-59%)
CN(C)CCN1C[C@H](O)[C@H](O)[C@@H]1CNC(=O)c1ccccc1 [Compound 667, N-(((2S,3R,4S)-1-(2-(dimethylamino)ethyl)-3,4-dihydroxypyrrolidin-2-yl)methyl)benzamide]	++ (++: 20-39%)
CCCC(=O)NC[C@@H]1[C@@H](O)[C@@H](O)CN1Cc1ccccc1 [Compound 669, N-(((2R,3R,4S)-1-benzyl-3,4-dihydroxypyrrolidin-2-yl)methyl)butyramide]	++ (++: 20-39%)

Compound	Ave % inhibition
O=C(NC[C@@H]1NC[C@H](O)[C@@H]1O)c1ccc(-c2ccccc2)cc1 [Compound 670, N-(((2S,3R,4S)-3,4-dihydroxypyrrolidin-2-yl)methyl)biphenyl-4-carboxamide]	+++++ (+++++: ≧80%)
O=C(NC[C@@H]1[C@@H](O)[C@@H](O)CN1Cc1ccccc1)c1ccc(-c2ccccc2)cc1 [Compound 673, N-(((2R,3R,4S)-1-benzyl-3,4-dihydroxypyrrolidin-2-yl)methyl)biphenyl-4-carboxamide]	++ (++: 20-39%)
O=C(NC[C@@H]1NC[C@H](O)[C@@H]1O)C(F)(F)F [Compound 674, N-(((2S,3R,4S)-3,4-dihydroxypyrrolidin-2-yl)methyl)-2,2,2-trifluoroacetamide]	++ (++: 20-39%)
CC1(C)O[C@H]2[C@H](CN(CCN3CCOCC3)[C@H]2CNC(=O)C(F)(F)F)O1 [Compound 675, N-(((3aR,4S,6aS)-2,2-dimethyl-5-(2-morpholinoethyl)tetrahydro-3aH-[1,3]dioxolo[4,5-c]pyrrol-4-yl)methyl)-2,2,2-trifluoroacetamid]	++ (++: 20-39%)
CCCCN1C[C@@H]2OC(C)(C)O[C@@H]2[C@@H]1CNC(=O)C(F)(F)F [Compound 676, N-(((3aR,4S,6aS)-5-butyl-2,2-dimethyltetrahydro-3aH-[1,3]dioxolo[4,5-c]pyrrol-4-yl)methyl)-2,2,2-trifluoroacetamide]	++ (++: 20-39%)
CC1(C)O[C@H]2[C@H](CN(CCN3CCCCC3)[C@H]2CNC(=O)C(F)(F)F)O1 [Compound 677, N-(((3aR,4S,6aS)-2,2-dimethyl-5-(2-(piperidin-1-yl)ethyl)tetrahydro-3aH-[1,3]dioxolo[4,5-c]pyrrol-4-yl)methyl)-2,2,2-trifluoroacetamide]	++ (++: 20-39%)
CN(C)CCN1C[C@@H]2OC(C)(C)O[C@@H]2[C@@H]1CNC(=O)C(F)(F)F [Compound 678, N-(((3aR,4S,6aS)-5-(2-(dimethylamino)ethyl)-2,2-dimethyltetrahydro-3aH-[1,3]dioxolo[4,5-c]pyrrol-4-yl)methyl)-2,2,2-trifluoroacetamide]	++ (++: 20-39%)
NC[C@H]1[C@@H](O)[C@@H](O)CN1Cc1ccc(-c2ccccc2)cc1 [Compound 686, (2S,3R,4S)-2-(aminomethyl)-1-(biphenyl-4-ylmethyl)pyrrolidine-3,4-diol]	+++ (+++: 40-59%)
COCCOCCN1C[C@H](O)[C@H](O)[C@@H]1CNC(=O)c1ccc(-c2ccccc2)cc1 [Compound 688, N-(((2S,3R,4S)-3,4-dihydroxy-1-(2-(2-methoxyethoxy)ethyl)pyrrolidin-2-yl)methyl)biphenyl-4-carboxamide]	+++ (+++: 40-59%)
CCCCN1C[C@H](O)[C@H](O)[C@H]1CNC(=O)CCC [Compound 689, N-(((2R,3R,4S)-1-butyl-3,4-dihydroxypyrrolidin-2-yl)methyl)butyramide]	+ (+: ≦19%)
O[C@H]([C@H]1[C@@H](O)[C@H](O)CN1Cc1ccccc1)[C@H](O)CNCc1ccccc1 [Compound 698, (2S,3R,4R)-1-benzyl-2-((1R,2R)-3-(benzylamino)-1,2-dihydroxypropyl)pyrrolidine-3,4-diol]	++ (++: 20-39%)
O[C@@H]1[C@H]([C@@H](O)CNCc2ccccc2)N(Cc2ccccc2)C[C@@H]1O [Compound 700, (2S,3R,4S)-1-benzyl-2-((S)-2-(benzylamino)-1-hydroxyethyl)pyrrolidine-3,4-diol]	++ (++: 20-39%)
O=C(NC[C@H]1[C@@H](O)[C@@H](O)CN1CCN1CCOCC1)c1ccc(-c2ccccc2)cc1 [Compound 702, N-(((2S,3R,4S)-3,4-dihydroxy-1-(2-morpholinoethyl)pyrrolidin-2-yl)methyl)biphenyl-4-carboxamide]	++++ (++++: 60-79%)
OC[C@@H](O)[C@H](O)[C@H]1[C@@H](O)[C@H](O)CN1Cc1ccccc1 [Compound 703, (1R,2R)-1-((2R,3R,4R)-1-benzyl-3,4-dihydroxypyrrolidin-2-yl)propane-1,2,3-triol]	++ (++: 20-39%)
CC1(C)O[C@H]([C@H]2[C@@H](O)[C@H](O)CN2Cc2ccccc2)[C@@H](CNCc2ccccc2)O1 [Compound 704, (2R,3R,4R)-1-benzyl-2-((4R,5R)-5-((benzylamino)methyl)-2,2-dimethyl-1,3-dioxolan-4-yl)pyrrolidine-3,4-diol]	++++ (++++: 60-79%)
COC(=O)[C@H]1C[C@H](O)CN1C(=O)OC(C)(C)C [Compound 713, (2R,4S)-1-tert-butyl 2-methyl 4-hydroxypyrrolidine-1,2-dicarboxylate]	++ (++: 20-39%)
[N-]=[N+]=N[C@@H]1C[C@H](CO)N(CCCO)C1 [Compound 717, ′3-((2R,4R)-4-azido-2-(hydroxymethyl)pyrrolidin-1-yl)propan-1-ol]	+++++ (+++++: ≧80%)
